Experimental findings from PMC11995724, “Antibiotic target discovery by integrated phenotypic and activity-based profiling of electrophilic fragments” (Cell chemical biology, 2025) are described below.

The nature of the series: in vitro. Particulars: human, hek293t cells.
Protocol: Mammalian cytotoxicity measurement was performed using Cell Titer-Glo 2.0 Cell Viability Assay (Promega, G9243) according to the manufacturer protocol. In brief, mammalian cells were seeded into 384-well white plates (Greiner, 781080) and incubated at 37°C for one day. Compounds from the Cys-Library were dispensed into the assay plate using epMotion 96. The plates were then incubated at 37°C for two days. An equal volume of Cell Titer-Glo 2.0 reagent was added into each well of the assay plate using epMotion 96 and incubated at 22°C for 10 min, followed by luminescence measurement using a Cytation 5 plate reader (BioTek).
A word on the viability: it is a read-out of living cells in per cent, often relative to untreated cells. In the case of `N#CC(=Cc1cccc(F)c1)C(=O)NCCc1ccccc1` [8-J22, 2-cyano-3-(3-fluorophenyl)-N-(2-phenylethyl)prop-2-enamide], the viability at 48 h, 25 µM worked out at 103%.
Next, `COc1ccc(C=C(C#N)C(=O)Nc2ccc(Cl)cc2Cl)cc1` [8-K03, 2-cyano-N-(2,4-dichlorophenyl)-3-(4-methoxyphenyl)prop-2-enamide]: 104%.
Consider `COc1cccc(NC(=O)C(C#N)=Cc2csnn2)c1` [8-K04, 2-cyano-N-(3-methoxyphenyl)-3-(1,2,3-thiadiazol-4-yl)prop-2-enamide], for which the viability at 48 h, 25 µM came out at 80.5%.
The same measure for `N#CC(=Cc1ccc(Sc2ccccc2)o1)C(=O)Nc1ccccc1` [8-K05, 2-cyano-N-phenyl-3-[5-(phenylsulfanyl)furan-2-yl]prop-2-enamide]: 70%; for `N#CC(=Cc1ccc(F)cc1)C(=O)NCCc1cccc(Cl)c1` [8-K06, N-[2-(3-chlorophenyl)ethyl]-2-cyano-3-(4-fluorophenyl)prop-2-enamide]: 49.6%.
The same measure for `Cc1cccc(C=C(C#N)C(=O)NC2CCCCC2)c1` [8-K07, 2-cyano-N-cyclohexyl-3-(3-methylphenyl)prop-2-enamide]: 45%; for `CCCCNC(=O)C(C#N)=Cc1cc(F)ccc1F` [8-K08, N-butyl-2-cyano-3-(2,5-difluorophenyl)prop-2-enamide]: 39.8%; for `N#CC(=Cc1ccccc1)C(=O)Nc1nncs1` [8-K09, 2-cyano-3-phenyl-N-(1,3,4-thiadiazol-2-yl)prop-2-enamide]: 94.2%.
Next, `COc1cc(Cl)c(C)cc1NC(=O)C(C#N)=Cc1c(C)n[nH]c1C` [8-K10, N-(4-chloro-2-methoxy-5-methylphenyl)-2-cyano-3-(3,5-dimethyl-1H-pyrazol-4-yl)prop-2-enamide]: 83.6%; `N#CC(=Cc1cccc2ccccc12)C(=O)Nc1ccccc1Cl` [8-K11, N-(2-chlorophenyl)-2-cyano-3-(naphthalen-1-yl)prop-2-enamide]: 80.5%.
Consider `N#CC(=Cc1cccc2c1OCO2)C(=O)Nc1cccc2ccccc12` [8-K12, 3-(1,3-dioxaindan-4-yl)-2-cyano-N-(naphthalen-1-yl)prop-2-enamide], for which the viability at 48 h, 25 µM was determined as 63.4%.
The same measure for `Cc1ccc(NC(=O)C(C#N)=Cc2ccc(C)s2)cc1` [8-K13, 2-cyano-N-(4-methylphenyl)-3-(5-methylthiophen-2-yl)prop-2-enamide]: 77%; for `Cc1cc(C=C(C#N)C(=O)Nc2ccncc2)c(C)n1C1CC1` [8-K14, 2-cyano-3-(1-cyclopropyl-2,5-dimethyl-1H-pyrrol-3-yl)-N-(pyridin-4-yl)prop-2-enamide]: 71.6%; for `Cc1ccccc1NC(=O)C(C#N)=Cc1ccsc1` [8-K15, 2-cyano-N-(2-methylphenyl)-3-(thiophen-3-yl)prop-2-enamide]: 77.5%.
For the molecule `COc1cc(C=C(C#N)C(=O)Nc2ccc(Cl)cc2)cc(OC)c1` [8-K16, N-(4-chlorophenyl)-2-cyano-3-(3,5-dimethoxyphenyl)prop-2-enamide], the viability at 48 h, 25 µM came out at 81.7%.
The same measure for `CN1C(=O)C(=C(C#N)C(=O)NCc2ccc(Cl)cc2)c2ccccc21` [8-K17, N-[(4-chlorophenyl)methyl]-2-cyano-2-(1-methyl-2-oxo-2,3-dihydro-1H-indol-3-ylidene)acetamide]: 78.3%.
Next, `CC(C)NC(=O)C(C#N)=Cc1ccc(-c2ccccc2F)o1` [8-K18, 2-cyano-3-[5-(2-fluorophenyl)furan-2-yl]-N-(propan-2-yl)prop-2-enamide]: 16%; `COc1ccc(C=C(C#N)C(=O)NCc2ccccc2)cc1` [8-K19, N-benzyl-2-cyano-3-(4-methoxyphenyl)prop-2-enamide]: 77.3%; `N#CC(=Cc1ccc(Cl)cc1)C(=O)Nc1ccncc1` [8-K20, 3-(4-chlorophenyl)-2-cyano-N-(pyridin-4-yl)prop-2-enamide]: 61.4%.
The same measure for `N#CC(=Cc1ccccc1OC(F)F)C(=O)Nc1ccccc1F` [8-K21, 2-cyano-3-[2-(difluoromethoxy)phenyl]-N-(2-fluorophenyl)prop-2-enamide]: 82.5%; for `CCc1ccc(NC(=O)C(C#N)=Cc2ccn(-c3ccccc3)n2)cc1` [8-K22, 2-cyano-N-(4-ethylphenyl)-3-(1-phenyl-1H-pyrazol-3-yl)prop-2-enamide]: 36.8%; for `N#CC(C(=O)Nc1ccc2c(c1)OCCO2)=C1N=C(N)c2ccccc21` [8-L03, 2-(3-amino-1H-isoindol-1-ylidene)-2-cyano-N-(2,3-dihydro-1,4-benzodioxin-6-yl)acetamide]: 83.5%.
In the case of `N#CC(=Cc1cccc(Cl)c1Cl)C(=O)NCc1ccccc1` [8-L04, N-benzyl-2-cyano-3-(2,3-dichlorophenyl)prop-2-enamide], the viability at 48 h, 25 µM worked out at 13.2%.
Next, `CC(C)NC(=O)C(C#N)=Cc1ccccc1` [8-L05, 2-cyano-3-phenyl-N-(propan-2-yl)prop-2-enamide]: 104%; `Cn1cc(C=C(C#N)C(=O)NCc2ccco2)cn1` [8-L06, 2-cyano-N-[(furan-2-yl)methyl]-3-(1-methyl-1H-pyrazol-4-yl)prop-2-enamide]: 89.4%.
Next, `N#CC(=Cc1ccc(F)cc1)C(=O)Nc1ccc(C(=O)O)cc1` [8-L07, 4-[2-cyano-3-(4-fluorophenyl)prop-2-enamido]benzoic acid]: 119%; `CCCn1c(C)cc(C=C(C#N)C(=O)N2CCC2)c1C` [8-L08, 2-(azetidine-1-carbonyl)-3-(2,5-dimethyl-1-propyl-1H-pyrrol-3-yl)prop-2-enenitrile]: 77.4%.
For `C=CCNC(=O)C(C#N)=Cc1cccc(C(F)(F)F)c1` [8-L09, 2-cyano-N-(prop-2-en-1-yl)-3-[3-(trifluoromethyl)phenyl]prop-2-enamide], the viability at 48 h, 25 µM came to 96.8%.
Regarding `Cn1cc(C=C(C#N)C(=O)NCCc2ccccc2)cn1` [8-L10, 2-cyano-3-(1-methyl-1H-pyrazol-4-yl)-N-(2-phenylethyl)prop-2-enamide], the viability at 48 h, 25 µM stood at 101%.
In the case of `Cc1ccc(C)c(NC(=O)C(C#N)=Cc2ccc3c(c2)OCCO3)c1` [8-L11, 2-cyano-3-(2,3-dihydro-1,4-benzodioxin-6-yl)-N-(2,5-dimethylphenyl)prop-2-enamide], the viability at 48 h, 25 µM was determined as 96.2%.
The same measure for `COCCNC(=O)C(C#N)=Cc1cccc2ccccc12` [8-L12, 2-cyano-N-(2-methoxyethyl)-3-(naphthalen-1-yl)prop-2-enamide]: 91.8%; for `CC(C)NC(=O)C(C#N)=Cc1ccc(C(F)(F)F)cc1` [8-L13, 2-cyano-N-(propan-2-yl)-3-[4-(trifluoromethyl)phenyl]prop-2-enamide]: 37.8%; for `CC(C)(C)c1ccc(C=C(C#N)C(=O)NCc2ccco2)cc1` [8-L14, 3-(4-tert-butylphenyl)-2-cyano-N-[(furan-2-yl)methyl]prop-2-enamide]: 76.1%.
Next, `CCC1SC(=C(C#N)C(=O)NC)N(c2ccc(Cl)cc2)C1=O` (centres unmarked) [8-L15, 2-[3-(4-chlorophenyl)-5-ethyl-4-oxo-1,3-thiazolidin-2-ylidene]-2-cyano-N-methylacetamide]: 132%.
The same measure for `COc1ccc(-c2nn(-c3ccccc3)cc2C=C(C#N)C(N)=O)cc1` [8-L16, 2-cyano-3-[3-(4-methoxyphenyl)-1-phenyl-1H-pyrazol-4-yl]prop-2-enamide]: 109%; for `N#CC(=Cc1cccnc1)C(=O)Nc1cccc2ccccc12` [8-L17, 2-cyano-N-(naphthalen-1-yl)-3-(pyridin-3-yl)prop-2-enamide]: 110%; for `CC(NC(=O)C(C#N)=Cc1cccc(F)c1)c1ccccc1` (centres unmarked) [8-L18, 2-cyano-3-(3-fluorophenyl)-N-(1-phenylethyl)prop-2-enamide]: 34.6%.
As for `CCCn1c(C)cc(C=C(C#N)C(=O)Nc2cccc(F)c2)c1C` [8-L19, 2-cyano-3-(2,5-dimethyl-1-propyl-1H-pyrrol-3-yl)-N-(3-fluorophenyl)prop-2-enamide], the viability at 48 h, 25 µM stood at 103%.
As to `C=CCNC(=O)C(C#N)=Cc1ccc(-c2ccc(F)cc2)o1` [8-L20, 2-cyano-3-[5-(4-fluorophenyl)furan-2-yl]-N-(prop-2-en-1-yl)prop-2-enamide], the viability at 48 h, 25 µM stood at 114%.
In the case of `N#CC(=Cc1ccc(Cl)cc1)C(N)=O` [8-L21, 3-(4-chlorophenyl)-2-cyanoprop-2-enamide], the viability at 48 h, 25 µM stood at 112%.
The same measure for `N#CC(=Cc1ccc(OC(F)F)cc1)C(=O)N1CCCC1` [8-L22, 3-[4-(difluoromethoxy)phenyl]-2-(pyrrolidine-1-carbonyl)prop-2-enenitrile]: 105%; for `COc1ccc(C=C(C#N)C(=O)Nc2cccc(C)c2)cc1` [8-M03, 2-cyano-3-(4-methoxyphenyl)-N-(3-methylphenyl)prop-2-enamide]: 95.7%.
The same measure for `CN1C(=CC=C(C#N)C(=O)NCC2CCCO2)C(C)(C)c2ccccc21` (centres unmarked) [8-M04, 2-cyano-N-[(oxolan-2-yl)methyl]-4-(1,3,3-trimethyl-2,3-dihydro-1H-indol-2-ylidene)but-2-enamide]: 77.7%; for `COc1ccc(C=C(C#N)C(=O)Nc2cccnc2)cc1OC` [8-M05, 2-cyano-3-(3,4-dimethoxyphenyl)-N-(pyridin-3-yl)prop-2-enamide]: 118%.
For the molecule `CCOc1cc(C=C(C#N)C(=O)N2CCCC2)cc(Cl)c1O` [8-M06, 3-(3-chloro-5-ethoxy-4-hydroxyphenyl)-2-(pyrrolidine-1-carbonyl)prop-2-enenitrile], the viability at 48 h, 25 µM was found to be 92.1%.
The same measure for `Cc1ccc(C)c(NC(=O)C(C#N)=Cc2cccn2C)c1` [8-M07, 2-cyano-N-(2,5-dimethylphenyl)-3-(1-methyl-1H-pyrrol-2-yl)prop-2-enamide]: 87.8%; for `Cc1n[nH]c(C)c1C=C(C#N)C(=O)Nc1cc(Cl)cc(Cl)c1` [8-M08, 2-cyano-N-(3,5-dichlorophenyl)-3-(3,5-dimethyl-1H-pyrazol-4-yl)prop-2-enamide]: 58.6%.
